Bridge positions count the residues as written; N and C are the ends. Square brackets hold non-standard residues; d marks the D form. Peptide text beside a SMILES is read from it.
What was measured:
Assay type in all cases: in vivo
insulin = assay: Arginine-stimulated hormone secretion in Nembutal-treated rats, radioimmunoassay of insulin
Description: (§1) Albino male rats were administered Nembutal intraperitoneally at a dose of 50 milligrams per kilogram. Fifteen minutes later a subcutaneous injection of the test compound or physiological saline was administered. Ten minutes later 0.5 milliliters of arginine (300 milligrams per milliliter, pH 7.2) is injected into the heart. Five minutes after receipt of the arginine the rats are decapitated and blood is collected into trasylol-EDTA. An appropriate aliquot was assayed for growth hormone, insulin, and glucagon by radioimmunoassay.

glucagon = assay: Arginine-stimulated hormone secretion in Nembutal-treated rats, radioimmunoassay of glucagon
Description: as §1

growth hormone secretion = assay: Effect on growth hormone secretion over time in rats treated with Nembutal, plasma GH by radioimmunoassay; details: for Growth Hormone: dose 1,000 μg/kg
Description: (D-Trp^5, D-Trp^8)-Somatostatin was also tested for its effect on growth hormone secretion in rats treated with Nembutal after 1, 2, 4, 5, 6, and 8 hours. Blood samples were obtained by cardiac puncture and plasma separated for radio immunoassay of GH concentration.

growth hormone = assay: Arginine-stimulated hormone secretion in Nembutal-treated rats, radioimmunoassay of growth hormone
Description: as §1

`C[C@H](N)C(=O)NCC(=O)N[C@H]1CSSC[C@@H](C(=O)O)NC(=O)[C@H](CO)NC(=O)[C@H]([C@@H](C)O)NC(=O)[C@H](Cc2ccccc2)NC(=O)[C@H]([C@@H](C)O)NC(=O)[C@H](CCCCN)NC(=O)[C@@H](Cc2c[nH]c3ccccc23)NC(=O)[C@H](Cc2ccccc2)NC(=O)[C@H](Cc2ccccc2)NC(=O)[C@@H](Cc2c[nH]c3ccccc23)NC(=O)[C@H](CCCCN)NC1=O` [(D-Trp^5, D-Trp^8)-Somatostatin, L-alanylglycyl-L-cysteinyl-L-lysyl-D-tryptophyl-L-phenylalanyl-L-phenylalanyl-D-tryptophyl-L-lysyl-L-threonyl-L-phenylalanyl-L-threonyl-L-seryl-L-cysteine cyclic (3→14)-disulfide, triacetate] (H-AGCK[dW]FF[dW]KTFTSC-OH; disulfide 3-14) gave an Insulin (insulin; dose 10 μg/kg subcutaneous, control 348 ± 36) of 183 ± 12 μU/ml, an Insulin (insulin; dose 100 μg/kg subcutaneous, control 348 ± 36) of 105 ± 9 μU/ml and an Insulin (insulin; dose 1,000 μg/kg subcutaneous, control 314 ± 46) of 33 ± 6 μU/ml. The “Effect on secretion of insulin (in words)” value (insulin; dose of 10 or 100 μg/kg) was “effective agent for reducing secretion of growth hormone and insulin”, the “Effect on release of insulin (in words)” value (insulin; higher dose (1 mg/kg)) was “inhibited release of growth hormone, insulin” and the Glucagon (glucagon; dose 10 μg/kg subcutaneous, control 44 ± 8, marked * not significant) was 36 ± 5 pg/mL. For the same compound, the Glucagon (glucagon; dose 100 μg/kg subcutaneous, control 44 ± 8, marked * not significant) was 31 ± 5 pg/mL, the Glucagon (glucagon; dose 1,000 μg/kg subcutaneous, control 46 ± 7) was 17 ± 4 pg/mL and the “Effect on glucagon levels (in words)” value (glucagon; dose of 10 or 100 μg/kg) was “without materially affecting glucagon levels”. For the same compound, the “Effect on release of glucagon (in words)” value (glucagon; higher dose (1 mg/kg)) was “inhibited release of growth hormone, insulin, and glucagon”, the “Duration of inhibition of growth-hormone release (in words)” value (growth hormone secretion; 1,000 μg/kg, 1 to 8 hours) was “long-acting inhibition of growth-hormone release” and the “Growth Hormone” value (growth hormone secretion; time 1 hr, control 61 ± 14) was 5 ± 2 ng/mL. The “Growth Hormone” value (growth hormone secretion; time 2 hrs, control 227 ± 44) was 16 ± 2 ng/mL, the “Growth Hormone” value (growth hormone secretion; time 4 hrs, control 84 ± 13) was 32 ± 10 ng/mL and the “Growth Hormone” value (growth hormone secretion; time 5 hrs, control 73 ± 11) was 16 ± 3 ng/mL. For the same compound, the “Growth Hormone” value (growth hormone secretion; time 6 hrs, control 156 ± 42) was 22 ± 2 ng/mL, the “Growth Hormone” value (growth hormone secretion; time 8 hrs, control 55 ± 22) was 31 ± 11 ng/mL and the GH (growth hormone; dose 10 μg/kg subcutaneous, control 133 ± 32) was 40 ± 6 ng/mL. For the same compound, the GH (growth hormone; dose 100 μg/kg subcutaneous, control 133 ± 32) was 25 ± 5 ng/mL, the GH (growth hormone; dose 1,000 μg/kg subcutaneous, blood 15 min after dosing, 5 min after arginine, control 259 ± 29) was 52 ± 5 ng/mL and the “Effect on secretion of growth hormone (in words)” value (growth hormone; dose of 10 or 100 μg/kg) was “effective agent for reducing secretion of growth hormone”. The “Effect on release of growth hormone (in words)” value (growth hormone; higher dose (1 mg/kg)) was “inhibited release of growth hormone”.
